Biological target: recombinant CaMKIIδ (Homo sapiens (Human), UniProt Q13557)
Experiment: CaMKIIδ biochemical assay (HTRF)
Conditions: 10 pM CaMKIIδ, 110 nM calmodulin, 12 μM ATP, 1 hour; read-out: CAMKIID-HTRF-384V2 (IC50 - nM)
Protocol: CaMKIIδ Biochemical Assay
The biochemical activity of recombinant CaMKIIδ was measured by monitoring the phosphorylation of a target peptide using Homogenous Time Resolved Fluorescence (HTRF) technology from CisBio Bioassays.

SMILES	IC50 [nM]
C[C@@H](CNC(=O)c1ccnc(-c2cnn3ccc(-c4cccs4)nc23)c1)NCC(F)F [Example 27, (S)—N-(2-((2,2-difluoroethyl)amino)propyl)-2-(5-(thiophen-2-yl)pyrazolo[1,5-a]pyrimidin-3-yl)isonicotinamide]	18.4
CCCC(CNC(=O)c1ccnc(-c2cnn3ccc(-c4ccccc4)nc23)c1)N(CC)CC (stereo not shown) [Example 60, N-(2-(diethylamino)pentyl)-2-(5-phenylpyrazolo[1,5-a]pyrimidin-3-yl)isonicotinamide]	2.35
CCN(CC)C(C)CNC(=O)c1ccnc(-c2cnn3ccc(-c4ccccc4)nc23)c1 (stereo not shown) [Example 37, N-(2-(diethylamino)propyl)-2-(5-phenylpyrazolo[1,5-a]pyrimidin-3-yl)isonicotinamide]	7.03
COC1CN(c2cc(C(=O)N3CC[C@H](N)C3)cc(-c3cnn4ccc(-c5ccccc5)nc34)n2)C1 [Example 328, (S)-(3-aminopyrrolidin-1-yl)(2-(3-methoxyazetidin-1-yl)-6-(5-phenylpyrazolo[1,5-a]pyrimidin-3-yl)pyridin-4-yl)methanone]	91.9
CCN(CC)[C@@H](C)CNC(=O)c1cc(-c2cnn3ccc(-c4cccs4)nc23)nc(N2CC[C@@H](N)C2)c1 [Example 318, 2-((R)-3-aminopyrrolidin-1-yl)-N—((S)-2-(diethylamino)propyl)-6-(5-(thiophen-2-yl)pyrazolo[1,5-a]pyrimidin-3-yl)isonicotinamide]	0.05
CCN(CC)[C@@H](C)CNC(=O)c1cccc(-c2cnn3ccc(-c4cccs4)nc23)n1 [Example 364, (S)—N-(2-(diethylamino)propyl)-6-(5-(thiophen-2-yl)pyrazolo[1,5-a]pyrimidin-3-yl)picolinamide]	715
CCN(CC)[C@@H](C)CNC(=O)c1cc(-c2cnn3ccc(-c4cccs4)nc23)nc(N2CCC(C#N)C2)c1 (stereo in doubt) [Example 313, 2-((S)-3-cyanopyrrolidin-1-yl)-N—((S)-2-(diethylamino)propyl)-6-(5-(thiophen-2-yl)pyrazolo[1,5-a]pyrimidin-3-yl)isonicotinamide]	0.18
CCN(CC)[C@@H](C)CNC(=O)c1cc(-c2cnn3ccc(-c4cccs4)nc23)nc(N2CC[C@H]2C(=O)NC)c1 [Example 275, N—((S)-2-(diethylamino)propyl)-2-((S)-2-(methylcarbamoyl)azetidin-1-yl)-6-(5-(thiophen-2-yl)pyrazolo[1,5-a]pyrimidin-3-yl)isonicotinamide]	0.2
CCN(CC)[C@@H](C)CNC(=O)c1cc(NC[C@@H](C)O)nc(-c2cnn3ccc(-c4cccs4)nc23)c1 [Example 202, N—((S)-2-(diethylamino)propyl)-2-(((R)-2-hydroxypropyl)amino)-6-(5-(thiophen-2-yl)pyrazolo[1,5-a]pyrimidin-3-yl)isonicotinamide]	0.14
CCN(CC)[C@@H](C)CNC(=O)c1cc(NS(C)(=O)=O)nc(-c2cnn3ccc(-c4cccs4)nc23)c1 [Example 181, (S)—N-(2-(diethylamino)propyl)-2-(methylsulfonamido)-6-(5-(thiophen-2-yl)pyrazolo[1,5-a]pyrimidin-3-yl)isonicotinamide]	0.64
CCN[C@@H](C)CNC(=O)c1ccnc(-c2cnn3ccc(-c4ccccc4)nc23)c1 [Example 42, (S)—N-(2-(ethylamino)propyl)-2-(5-phenylpyrazolo[1,5-a]pyrimidin-3-yl)isonicotinamide]	14.4
CCN[C@@H](C)CNC(=O)c1cc(-c2cnn3ccc(-c4cccs4)nc23)nc(N2CC[C@H]2C(=O)NC)c1 [Example 306, N—((S)-2-(ethylamino)propyl)-2-((S)-2-(methylcarbamoyl)azetidin-1-yl)-6-(5-(thiophen-2-yl)pyrazolo[1,5-a]pyrimidin-3-yl)isonicotinamide]	10.6
CCN(CC)[C@@H](C)CNC(=O)c1cc(-c2cnn3ccc(-c4cccs4)nc23)nc(N2CC[C@H]2C(=O)N2CC(C)(C)C2)c1 [Example 292, N—((S)-2-(diethylamino)propyl)-2-((S)-2-(3,3-dimethylazetidine-1-carbonyl)azetidin-1-yl)-6-(5-(thiophen-2-yl)pyrazolo[1,5-a]pyrimidin-3-yl)isonicotinamide]	0.58
CCN(CC)[C@@H](C)CNC(=O)c1cc(-c2cnn3ccc(-c4cccs4)nc23)nc(N2CC[C@H]2C(=O)NC2CC2)c1 [Example 277, 2-((S)-2-(cyclopropylcarbamoyl)azetidin-1-yl)-N—((S)-2-(diethylamino)propyl)-6-(5-(thiophen-2-yl)pyrazolo[1,5-a]pyrimidin-3-yl)isonicotinamide]	0.51
COC1CN(c2cc(C(=O)NC[C@H](C)N)cc(-c3cnn4ccc(-c5ccccc5)nc34)n2)C1 [Example 172, (S)—N-(2-aminopropyl)-2-(3-methoxyazetidin-1-yl)-6-(5-phenylpyrazolo[1,5-a]pyrimidin-3-yl)isonicotinamide]	85.3
CCN(CC)[C@@H](C)CNC(=O)c1cc(-c2cnn3ccc(-c4cccs4)nc23)nc(N2C[C@@H]3C[C@H]2CO3)c1 [Example 253, 2-((1S,4S)-2-oxa-5-azabicyclo[2.2.1]heptan-5-yl)-N—((S)-2-(diethylamino)propyl)-6-(5-(thiophen-2-yl)pyrazolo[1,5-a]pyrimidin-3-yl)isonicotinamide]	0.38
CCN(CC)[C@@H](C)CNC(=O)c1cc(-c2cnn3ccc(-c4cccs4)nc23)nc(N2CCn3ccnc3C2)c1 [Example 155, (S)—N-(2-(diethylamino)propyl)-2-(5,6-dihydroimidazo[1,2-a]pyrazin-7(8H)-yl)-6-(5-(thiophen-2-yl)pyrazolo[1,5-a]pyrimidin-3-yl)isonicotinamide]	0.32
N[C@H]1C[C@@H]2CCC[C@H]1N2C(=O)c1ccnc(-c2cnn3ccc(-c4ccccc4)nc23)c1 [Example 88, ((1S,5R,6S)-6-amino-8-azabicyclo[3.2.1]octan-8-yl)(2-(5-phenylpyrazolo[1,5-a]pyrimidin-3-yl)pyridin-4-yl)methanone]	50.3
CCN[C@H](CNC(=O)c1ccnc(-c2cnn3ccc(-c4ccccc4)nc23)c1)COc1ncccn1 [Example 69, (R)—N-(2-(ethylamino)-3-(pyrimidin-2-yloxy)propyl)-2-(5-phenylpyrazolo[1,5-a]pyrimidin-3-yl)isonicotinamide]	91.1
CCN(CC)[C@@H](C)CNC(=O)c1cc(-c2cnn3ccc(-c4cccs4)nc23)nc(N2CC(C)(OC)C2)c1 [Example 227, (S)—N-(2-(diethylamino)propyl)-2-(3-methoxy-3-methylazetidin-1-yl)-6-(5-(thiophen-2-yl)pyrazolo[1,5-a]pyrimidin-3-yl)isonicotinamide]	0.07
CCN[C@@H](C)CNC(=O)c1cc(CC)nc(-c2cnn3ccc(-c4ccccc4)nc23)c1 [Example 119, (S)-2-ethyl-N-(2-(ethylamino)propyl)-6-(5-phenylpyrazolo[1,5-a]pyrimidin-3-yl)isonicotinamide]	71
C[C@H](N)[C@@H]1CCCCN1C(=O)c1ccnc(-c2cnn3ccc(-c4ccccc4)nc23)c1 [Example 90, ((S)-2-((S)-1-aminoethyl)piperidin-1-yl)(2-(5-phenylpyrazolo[1,5-a]pyrimidin-3-yl)pyridin-4-yl)methanone]	58.5
C[C@H](N)CNC(=O)c1ccnc(-c2cnn3ccc(-c4cccs4)nc23)c1 [Example 22, (S)—N-(2-aminopropyl)-2-(5-(thiophen-2-yl)pyrazolo[1,5-a]pyrimidin-3-yl)isonicotinamide]	13.9
CCN(CC)[C@@H](C)CNC(=O)c1cc(-c2cnn3ccc(-c4cccs4)nc23)nc(N2CC[C@H]2C(=O)NOC)c1 [Example 289, N—((S)-2-(diethylamino)propyl)-2-((S)-2-(methoxycarbamoyl)azetidin-1-yl)-6-(5-(thiophen-2-yl)pyrazolo[1,5-a]pyrimidin-3-yl)isonicotinamide]	0.65
COc1cc(C(=O)N2CC[C@H](N)C2)cc(-c2cnn3ccc(-c4cccs4)nc23)n1 [Example 110, (S)-(3-aminopyrrolidin-1-yl)(2-methoxy-6-(5-(thiophen-2-yl)pyrazolo[1,5-a]pyrimidin-3-yl)pyridin-4-yl)methanone]	7.6
CCN(CC)[C@@H](C)CNC(=O)c1cc(-c2cnn3ccc(-c4cccs4)nc23)nc(C(F)(F)F)c1 [Example 107, (S)—N-(2-(diethylamino)propyl)-2-(5-(thiophen-2-yl)pyrazolo[1,5-a]pyrimidin-3-yl)-6-(trifluoromethyl)isonicotinamide]	5.62
CCN(CCN)C(=O)c1ccnc(-c2cnn3ccc(-c4ccccc4)nc23)c1 [Example 65, N-(2-aminoethyl)-N-ethyl-2-(5-phenylpyrazolo[1,5-a]pyrimidin-3-yl)isonicotinamide]	12.6
CCN(CC)[C@@H](C)CNC(=O)c1cc(NC[C@H](C)O)nc(-c2cnn3ccc(-c4cccs4)nc23)c1 [Example 201, N—((S)-2-(diethylamino)propyl)-2-(((S)-2-hydroxypropyl)amino)-6-(5-(thiophen-2-yl)pyrazolo[1,5-a]pyrimidin-3-yl)isonicotinamide]	0.11
CCN(CC)[C@@H](C)CNC(=O)c1cc(-c2cnn3ccc(-c4cccs4)nc23)nc(N2CCC[C@H]2C(N)=O)c1 [Example 270, 2-((S)-2-carbamoylpyrrolidin-1-yl)-N—((S)-2-(diethylamino)propyl)-6-(5-(thiophen-2-yl)pyrazolo[1,5-a]pyrimidin-3-yl)isonicotinamide]	1.91
NC[C@H]1CCCCN1C(=O)c1cc(Cl)nc(-c2cnn3ccc(-c4ccccc4)nc23)c1 [Example 127, (R)-(2-(aminomethyl)piperidin-1-yl)(2-chloro-6-(5-phenylpyrazolo[1,5-a]pyrimidin-3-yl)pyridin-4-yl)methanone]	0.22

Same assay, conditions: potency against CamKIIδ acquired with in-house assays, reference for selectivity values; read-out: CamKIIδ potency (Table 1)

SMILES	IC50 [nM]
CCN(CC)[C@@H](C)CNC(=O)c1cc(-c2cnn3ccc(-c4cccs4)nc23)nc(N2CC[C@H]2C(=O)NC)c1 [Example 275, N—((S)-2-(diethylamino)propyl)-2-((S)-2-(methylcarbamoyl)azetidin-1-yl)-6-(5-(thiophen-2-yl)pyrazolo[1,5-a]pyrimidin-3-yl)isonicotinamide]	0.43
